Source: ChEMBL document CHEMBL4020813, “The ProTide Prodrug Technology: From the Concept to the Clinic” (J Med Chem, 2018)

Key:
HT-29 = assay: Antitumor activity against human HT-29 cells xenografted in nude mouse assessed as tumor growth inhibition relative to control; assay type: functional
[1] = Half life in po dosed human; assay type: ADME, organism-based; conditions: in vivo
[2] = Tmax in po dosed human; assay type: ADME, organism-based; conditions: in vivo
[3] = Plasma concentration in dog at 5 mg/kg at 0.14 hrs post dose
[4] = Half life in human MT2 cells by HPLC analysis
in vivo [5] = conditions: dog, po, 20 mg/kg
[6] = Half life in beagle dog hepatic S9 fraction
in vivo [7] = conditions: dog, po, 2 mg/kg
[8] = Plasma concentration in dog at 5 mg/kg at 1 hr post dose
[9] = Half life in human; assay type: ADME
[10] = Half life in beagle dog intestine
Homo sapiens [11] = species: Homo sapiens; assay: Cmax in human assessed as dFdCTP level; assay type: ADME
Homo sapiens [12] = species: Homo sapiens; assay: Reduction in tumor growth in patient with solid malignancies; assay type: functional
[13] = Drug recovery in human urine at 100 to 800 mg; assay type: ADME; conditions: read-out: Drug recovery
[14] = Renal clearance in human at 100 to 800 mg; assay type: ADME
[15] = Protein binding in human plasma; assay type: ADME, cell-free; conditions: read-out: PPB (converted)
[16] = Fraction absorbed in po dosed portal vein cannulated dog; assay type: ADME, organism-based, Canis lupus familiaris; conditions: in vivo, read-out: Fabs
Plasma = assay: Protein binding in plasma of patient with end stage renal disease; assay type: ADME, cell-free; conditions: human
[17] = Fraction absorbed in human; assay type: ADME; conditions: read-out: Fabs
[18] = Oral bioavailability in portal vein cannulated dog; assay type: ADME, organism-based, Canis lupus familiaris; conditions: in vivo
Ebolavirus [19] = assay: Antiviral activity against Ebolavirus H. sapiens-tc/COD/1995/Kikwit infected in rhesus monkey assessed as host survival at 10 mg/kg, iv administered as bolus dose; assay type: functional; conditions: Orthoebolavirus, in Macaca mulatta
Ebolavirus [20] = assay: Antiviral activity against Ebolavirus infected in human HeLa cells after 48 hrs by immuno-staining assay; assay type: functional, cell-based; conditions: Orthoebolavirus
[21] = Half life in rhesus monkey plasma at 10 mg/kg, iv administered as bolus dose by LC-MS/MS analysis; assay type: ADME, organism-based, Macaca mulatta
Ebolavirus [22] = assay: Antiviral activity against Ebolavirus infected in human HuH7 cells after 3 days by end point dilution assay; assay type: functional, cell-based; conditions: Orthoebolavirus, Huh-7, 72 h
[23] = Half life in human primary macrophages assessed as nucleoside triphosphate level at 10 uM; assay type: ADME, cell-based; conditions: macrophage
Ebolavirus [24] = assay: Antiviral activity against Ebolavirus H. sapiens-tc/COD/1995/Kikwit infected in rhesus monkey assessed as host survival at 3 mg/kg, iv administered as bolus dose; assay type: functional; conditions: Orthoebolavirus, in Macaca mulatta
Ebolavirus [25] = assay: Antiviral activity against Ebolavirus infected in human primary macrophages after 48 hrs by immuno-staining assay; assay type: functional; conditions: Orthoebolavirus
[26] = Cytotoxicity against human HeLa after 4 to 5 days by Cell-Titer Glo viability assay; assay type: cell-based; conditions: HeLa cells
[27] = Cytotoxicity against human primary macrophages after 4 to 5 days by Cell-Titer Glo viability assay; assay type: cell-based, Macrophage
[28] = Cytotoxicity against human HuH7 after 4 to 5 days by Cell-Titer Glo viability assay; assay type: cell-based, Huh-7; conditions: HuH7 cells
JM1 = assay: Cytotoxicity against human JM1 cells; assay type: cell-based
[29] = test system: Human immunodeficiency virus 1; assay: Antiviral activity against HIV1 infected in human JM1 cells; assay type: functional, cell-based; conditions: Human immunodeficiency virus 1, JM1

For `C[C@H](NP(=O)(OC[C@H]1O[C@@H](n2cc(F)c(=O)[nH]c2=O)C[C@@H]1O)Oc1cccc2ccccc12)C(=O)OCc1ccccc1` (stereo partly specified) [FOSIFLOXURIDINE NAFALBENAMIDE], the TGI (HT-29) was 47%.

Compound `C[C@]1(F)[C@H](O)[C@@H](CO)O[C@H]1n1ccc(=O)[nH]c1=O` has a half-life [1] of 28.8 to 45 min and a Tmax [2] of 120 to 240 min.

In the case of `CC(C)OC(=O)[C@H](C)N[P@](=O)(CO[C@H](C)Cn1cnc2c(N)ncnc21)Oc1ccccc1` [TENOFOVIR ALAFENAMIDE], the concentration at […] [3] is reported as 1.58 µM, the half-life [4] is reported as 28.3 min and the bioavailability (in vivo [5]) is reported as 24.7%. The half-life [6] was 31 min, the bioavailability (in vivo [7]) was 1.7% and the concentration at 1 h [8] was 18 µM. It also gave a half-life [9] of 92 min and a half-life [10] of 31 min.

Compound `C[C@H](NP(=O)(OC[C@H]1O[C@@H](n2ccc(N)nc2=O)C(F)(F)[C@@H]1O)Oc1ccccc1)C(=O)OCc1ccccc1` (stereo partly specified) [FOSGEMCITABINE PALABENAMIDE] has a Cmax (Homo sapiens [11]) of 475 µM, a half-life [9] of 498 min and a TGI (Homo sapiens [12]) greater than 30%.

Work on `CC(C)OC(=O)[C@H](C)N[P@](=O)(OC[C@H]1O[C@@H](n2ccc(=O)[nH]c2=O)[C@](C)(F)[C@@H]1O)Oc1ccccc1` [SOFOSBUVIR] yielded a dose excreted [13] of 3.5%, a CL renal [14] of 238 mL/min and a fraction unbound [15] of 0.18. The Fa [16] was 36%, the PPB (Plasma) was 85% and the Tmax [2] was 30 to 120 min. For the same compound, the Fa [17] was greater than 80% and the bioavailability [18] was 9.9%.

With `CCC(CC)COC(=O)[C@H](C)N[P@](=O)(OC[C@H]1O[C@@](C#N)(c2ccc3c(N)ncnn23)[C@H](O)[C@@H]1O)Oc1ccccc1` the survival at 10 mg/kg (Ebolavirus [19]) was 100%, the EC50 (Ebolavirus [20]) was 0.14 µM and the half-life [21] was 23.4 min. It also gave an EC50 (Ebolavirus [22]) of 0.07 µM, a t1/2 [23] of 960 min and a survival at 3 mg/kg (Ebolavirus [24]) of 50%. For the same compound, the EC50 (Ebolavirus [25]) was 0.086 µM, the CC50 [26] was greater than 20 µM and the CC50 [27] was greater than 20 µM. It also gave a CC50 [28] greater than 20 µM.

In the case of `COC(=O)[C@H](C)NP(=O)(OC[C@H]1O[C@@H](n2cc(C)c(=O)[nH]c2=O)C[C@@H]1N=[N+]=[N-])Oc1ccc(OC)cc1` (stereo partly specified), the IC50 (JM1) is reported as 100 µM and the EC50 [29] is reported as 0.8 µM.

With `N#C[C@@]1(c2ccc3c(N)ncnn23)O[C@H](CO)[C@@H](O)[C@H]1O` [GS-441524] the EC50 (Ebolavirus [20]) was greater than 20 µM, the EC50 (Ebolavirus [22]) was 1.5 µM and the EC50 (Ebolavirus [25]) was greater than 20 µM. The CC50 [26] was greater than 20 µM, the CC50 [27] was greater than 20 µM and the CC50 [28] was greater than 20 µM.

For `O=c1[nH]cc(F)c(=O)[nH]1` [FLUOROURACIL], the TGI (HT-29) was 25%.
